The source of these data is patent US20260001928A1 (CORTERIA PHARMACEUTICALS, priority 2022, published 2026).

*1 amine or outer side, *2 acyl side, *3 side chain or, on linkers, in order; H or OH if unused. Where a SMILES comes first, the peptide text is derived from it. Side-chain parts run from the residue outwards. [ ]: non-standard residue; d: D form. The star is where a group is joined. C18 diacid = O=C(O)CCCCCCCCCCCCCCCCC(=O)*; C16 diacid = O=C(O)CCCCCCCCCCCCCCC(=O)*; γGlu = O=C(O)[C@H](CCC(=O)[*:2])N[*:1]; C12 diacid = O=C(O)CCCCCCCCCCC(=O)*; αMeL = CC(C)C[C@](C)(N)C(=O)O; Api = NC1(C(=O)O)CCNCC1; Pentanoyl = CCCCC(=O)*; AEEA = NCCOCCOCC(=O)O; Aib = CC(C)(N)C(=O)O; Butyryl = CCCC(=O)*

Usually EC50 stands for the concentration that produces a half-maximal response.

Test [1] has as its target T1, CFR1R receptor (Homo sapiens, UniProt P34998).
T1 construct: host or cells: CHO-K1 (clone 2)
T1 sequence (P34998 24-415): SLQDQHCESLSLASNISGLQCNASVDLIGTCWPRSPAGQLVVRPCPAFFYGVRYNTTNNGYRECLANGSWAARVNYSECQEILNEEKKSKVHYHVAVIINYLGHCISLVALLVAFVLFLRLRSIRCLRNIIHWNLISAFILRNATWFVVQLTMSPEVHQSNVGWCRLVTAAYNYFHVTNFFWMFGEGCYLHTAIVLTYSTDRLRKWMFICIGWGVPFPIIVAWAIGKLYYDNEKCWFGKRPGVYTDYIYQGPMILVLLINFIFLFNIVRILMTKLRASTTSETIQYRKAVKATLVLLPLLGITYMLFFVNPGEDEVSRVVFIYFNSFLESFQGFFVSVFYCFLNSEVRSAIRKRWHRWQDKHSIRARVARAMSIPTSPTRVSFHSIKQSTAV
Kind of test: Activity at anti-target CFR1R receptor, cAMP assay in CRF1R-overexpression CHO-K1 cells. It is filed as cell-based. To be noted: 100% = Sauvagine at 100 nM; for EC50: cAMP. An outline of the steps: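 Clone 2 cells were cultured in F12 (Hams)/10% FBS/400 μg/ml G418 at 37° C./5% CO2, frozen in medium with 10% DMSO, and thawed vials used. The protocol followed the TeloHAEC procedure, with 4000 cells/well final and Sauvagine at 100 nM defining 100% activation.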
On the technique in general: Cyclic AMP is a second messenger, typically raised through Gs and lowered through Gi signalling.

The target of test [2] is T2, human CRF2a receptor (Homo sapiens, UniProt Q13324).
T2 construct: expressed in transfected cells; host or cells: TeloHEAC cells
T2 sequence (Q13324 1-411): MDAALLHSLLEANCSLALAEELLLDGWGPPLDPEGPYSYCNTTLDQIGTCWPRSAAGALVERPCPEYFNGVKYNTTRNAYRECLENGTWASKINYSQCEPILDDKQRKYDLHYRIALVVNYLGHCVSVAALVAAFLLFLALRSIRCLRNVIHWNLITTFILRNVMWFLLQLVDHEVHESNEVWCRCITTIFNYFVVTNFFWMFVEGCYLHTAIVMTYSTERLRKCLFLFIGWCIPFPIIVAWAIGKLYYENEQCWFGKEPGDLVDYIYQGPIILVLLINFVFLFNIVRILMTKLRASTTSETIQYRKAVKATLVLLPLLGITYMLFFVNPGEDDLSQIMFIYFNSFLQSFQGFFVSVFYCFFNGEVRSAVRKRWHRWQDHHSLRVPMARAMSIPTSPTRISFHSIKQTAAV
Kind of test: Activity at human CRF2a receptor, cAMP functional assay in TeloHEAC cells. Format: cell-based. To be noted: TeloHEAC cells stably expressing human CRF2a receptor, relative to urocortin 2 (100 nM = 100%). In outline: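 cAMP accumulation was measured by HTRF 665/620 nm ratio after 30 min at 37° C compound exposure (16 twofold dilutions) of CRF2a-expressing TeloHEAC cells, 10000/well, in HEPES-buffered HBSS plus IBMX. Activity was normalised to urocortin 2 at 100 nM (100%), and EC50 was the concentration giving half-maximal activation.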

In the case of `CCCC(=O)N[C@H](C(=O)N[C@@H](CC(C)C)C(=O)N[C@@H](CO)C(=O)N[C@@H](CC(C)C)C(=O)N[C@@H](CC(=O)O)C(=O)N[C@@H](C(=O)N1CCC[C@H]1C(=O)N[C@H](C(=O)N[C@@H](CCCCN)C(=O)N[C@@H](CC(C)C)C(=O)N[C@@H](CCCCNC(=O)CC[C@H](NC(=O)CCCCCCCCCCCCCCC(=O)O)C(=O)O)C(=O)N[C@@H](CCCCN)C(=O)N[C@H](C(=O)N[C@@H](CC(C)C)C(=O)N[C@@H](CC(C)C)C(=O)N[C@@H](CCC(=O)O)C(=O)N[C@@H](CCC(N)=O)C(=O)N[C@@H](CCC(=O)O)C(=O)N[C@@H](CCCCN)C(=O)N[C@@H](CCC(N)=O)C(=O)N[C@@H](CCCCN)C(=O)N[C@@H](CCCCN)C(=O)N[C@@H](CCC(N)=O)C(=O)N[C@@H](CCCNC(=N)N)C(=O)N[C@@H](CCC(=O)O)C(=O)N[C@@H](CCC(N)=O)C(=O)N[C@@H](C)C(=O)N[C@@H](CCC(=O)O)C(=O)N[C@H](C(=O)N[C@@H](CC(N)=O)C(=O)NC(C)(C)C(=O)N[C@@H](CCC(N)=O)C(=O)N[C@H](C(=O)N[C@@H](CC(C)C)C(=O)N[C@@H](C)C(=O)N[C@@H](CCC(N)=O)C(=O)N[C@H](C(N)=O)C(C)C)[C@@H](C)CC)[C@@H](C)O)[C@@H](C)CC)[C@@H](C)CC)C(C)C)C(C)C` [compound 79] (Butyryl-VLSLD[dV]PIKLK([γGlu-C16 diacid])KILLEQEKQKKQREQAETN[Aib]QILAQV-NH2), the “Emax (% I)” value in test [1] was 10 % I. The EC50 is more than 250 nM in test [1] and 0.38 nM in test [2].
In the same order, the values of `CC[C@H](C)[C@H](NC(=O)[C@H](CCC(N)=O)NC(=O)C(C)(C)NC(=O)[C@H](CC(N)=O)NC(=O)[C@@H](NC(=O)[C@H](CCC(=O)O)NC(=O)[C@H](C)NC(=O)[C@H](CCC(N)=O)NC(=O)[C@H](CCC(=O)O)NC(=O)[C@H](CCCNC(=N)N)NC(=O)[C@H](CCC(N)=O)NC(=O)[C@H](CCCCN)NC(=O)[C@H](CCCCN)NC(=O)[C@H](CCC(N)=O)NC(=O)[C@H](CCCCN)NC(=O)[C@H](CCC(=O)O)NC(=O)[C@H](CCC(N)=O)NC(=O)[C@H](CCC(=O)O)NC(=O)[C@H](CC(C)C)NC(=O)[C@H](CC(C)C)NC(=O)[C@@H](NC(=O)[C@H](CCCCN)NC(=O)[C@H](CCCCNC(=O)CC[C@H](NC(=O)CCCCCCCCCCCCCCC(=O)O)C(=O)O)NC(=O)[C@H](CC(C)C)NC(=O)[C@H](CCCCN)NC(=O)[C@@H](NC(=O)[C@@H]1CCCN1C(=O)[C@H](NC(=O)[C@H](CC(=O)O)NC(=O)[C@H](CC(C)C)NC(=O)[C@H](CO)NC(=O)[C@H](CC(C)C)NC(=O)[C@@H](NC(C)=O)C(C)C)C(C)C)[C@@H](C)CC)[C@@H](C)CC)[C@@H](C)O)C(=O)N[C@@H](CC(C)C)C(=O)N[C@@H](C)C(=O)N[C@@H](CCC(N)=O)C(=O)N[C@H](C(N)=O)C(C)C` [compound 45] (Ac-VLSLD[dV]PIKLK([γGlu-C16 diacid])KILLEQEKQKKQREQAETN[Aib]QILAQV-NH2) are 5 % I, more than 250 nM and 0.96 nM.
In the case of `CCCCC(=O)N[C@H](C(=O)N[C@@H](CC(C)C)C(=O)N[C@@H](CO)C(=O)N[C@@H](CC(C)C)C(=O)N[C@@H](CC(=O)O)C(=O)N[C@@H](C(=O)N1CCC[C@H]1C(=O)N[C@H](C(=O)N[C@@H](CCCCN)C(=O)N[C@@](C)(CC(C)C)C(=O)N[C@@H](CCCCNC(=O)COCCOCCNC(=O)COCCOCCNC(=O)CC[C@H](NC(=O)CCCCCCCCCCCCCCCCC(=O)O)C(=O)O)C(=O)N[C@@H](CCCCN)C(=O)N[C@H](C(=O)N[C@@H](CC(C)C)C(=O)N[C@@H](CC(C)C)C(=O)N[C@@H](CCC(=O)O)C(=O)N[C@@H](CCC(N)=O)C(=O)N[C@@H](CCC(=O)O)C(=O)N[C@@H](CCCCN)C(=O)N[C@@H](CCC(N)=O)C(=O)N[C@@H](CCCCN)C(=O)N[C@@H](CCCCN)C(=O)N[C@@H](CCC(N)=O)C(=O)N[C@@H](CCCNC(=N)N)C(=O)N[C@@H](CCC(=O)O)C(=O)N[C@@H](CCC(N)=O)C(=O)N[C@@H](C)C(=O)N[C@@H](CCC(=O)O)C(=O)N[C@H](C(=O)N[C@@H](CC(N)=O)C(=O)N[C@H](C(=O)N[C@@H](CCC(N)=O)C(=O)N[C@H](C(=O)N[C@@H](CC(C)C)C(=O)N[C@@H](C)C(=O)N[C@@H](CCC(N)=O)C(=O)N[C@H](C(N)=O)C(C)C)[C@@H](C)CC)C(C)C)[C@@H](C)O)[C@@H](C)CC)[C@@H](C)CC)C(C)C)C(C)C` [compound 124] (Pentanoyl-VLSLD[dV]PIK[αMeL]K([AEEA-AEEA-γGlu-C18 diacid])KILLEQEKQKKQREQAETNVQILAQV-NH2), in test [1], the “Emax (% I)” value turned out to be 14 % I and the EC50 was more than 250 nM. For the same compound, in test [2], a half-maximal response (EC50) required 0.38 nM.
On to `CC[C@H](C)[C@H](NC(C)=O)C(=O)N[C@H](C(=O)N[C@@H](CC(C)C)C(=O)N[C@@H](CO)C(=O)N[C@@H](CC(C)C)C(=O)N[C@@H](CC(=O)O)C(=O)N[C@@H](C(=O)N1CCC[C@H]1C(=O)N[C@H](C(=O)N[C@@H](CCCCN)C(=O)N[C@@H](CC(C)C)C(=O)N[C@@H](CCCCNC(=O)CC[C@H](NC(=O)CCCCCCCCCCC(=O)O)C(=O)O)C(=O)N[C@@H](CCCCN)C(=O)N[C@H](C(=O)N[C@@H](CC(C)C)C(=O)N[C@@H](CC(C)C)C(=O)N[C@@H](CCC(=O)O)C(=O)N[C@@H](CCC(N)=O)C(=O)N[C@@H](CCC(=O)O)C(=O)N[C@@H](CCCCN)C(=O)N[C@@H](CCC(N)=O)C(=O)N[C@@H](CCCCN)C(=O)N[C@@H](CCCCN)C(=O)N[C@@H](CCC(N)=O)C(=O)N[C@@H](CCCNC(=N)N)C(=O)N[C@@H](CCC(=O)O)C(=O)N[C@@H](CCC(N)=O)C(=O)N[C@@H](C)C(=O)N[C@@H](CCC(=O)O)C(=O)N[C@H](C(=O)N[C@@H](CC(N)=O)C(=O)NC1(C(=O)N[C@@H](CCC(N)=O)C(=O)N[C@H](C(=O)N[C@@H](CC(C)C)C(=O)N[C@@H](C)C(=O)N[C@@H](CCC(N)=O)C(=O)N[C@H](C(N)=O)C(C)C)[C@@H](C)CC)CCNCC1)[C@@H](C)O)[C@@H](C)CC)[C@@H](C)CC)C(C)C)C(C)C` [compound 183] (Ac-IVLSLD[dV]PIKLK([γGlu-C12 diacid])KILLEQEKQKKQREQAETN[Api]QILAQV-NH2), for which the “Emax (% I)” value in test [1] turned out to be 11 % I. For the same compound, the EC50 is more than 250 nM in test [1] and 2.47 nM in test [2].
Take `CC[C@H](C)[C@H](NC(C)=O)C(=O)N[C@H](C(=O)N[C@@H](CC(C)C)C(=O)N[C@@H](CO)C(=O)N[C@@H](CC(C)C)C(=O)N[C@@H](CC(=O)O)C(=O)N[C@@H](C(=O)N1CCC[C@H]1C(=O)N[C@H](C(=O)N[C@@H](CCCCN)C(=O)N[C@@H](CC(C)C)C(=O)N[C@@H](CCCCNC(=O)CC[C@H](NC(=O)CCCCCCCCCCCCCCC(=O)O)C(=O)O)C(=O)N[C@@H](CCCCN)C(=O)N[C@H](C(=O)N[C@@H](CC(C)C)C(=O)N[C@@H](CC(C)C)C(=O)N[C@@H](CCC(=O)O)C(=O)N[C@@H](CCC(N)=O)C(=O)N[C@@H](CCC(=O)O)C(=O)N[C@@H](CCCCN)C(=O)N[C@@H](CCC(N)=O)C(=O)N[C@@H](CCCCN)C(=O)N[C@@H](CCCCN)C(=O)N[C@@H](CCC(N)=O)C(=O)N[C@@H](CCCNC(=N)N)C(=O)N[C@@H](CCC(=O)O)C(=O)N[C@@H](CCC(N)=O)C(=O)N[C@@H](C)C(=O)N[C@@H](CCC(=O)O)C(=O)N[C@H](C(=O)N[C@@H](CC(N)=O)C(=O)N[C@H](C(=O)N[C@@H](CCC(N)=O)C(=O)N[C@H](C(=O)N[C@@H](CC(C)C)C(=O)N[C@@H](C)C(=O)N[C@@H](CCC(N)=O)C(=O)N[C@H](C(N)=O)C(C)C)[C@@H](C)CC)C(C)C)[C@@H](C)O)[C@@H](C)CC)[C@@H](C)CC)C(C)C)C(C)C` [compound 48] (Ac-IVLSLD[dV]PIKLK([γGlu-C16 diacid])KILLEQEKQKKQREQAETNVQILAQV-NH2): in test [1], the “Emax (% I)” value came to 4 % I and the EC50 was more than 250 nM. In test [2], this compound came in with an EC50 of 1.35 nM.
